Experimental data reported in PMC3907537, “Evaluation of the Endothelin Receptor Antagonists Ambrisentan, Bosentan, Macitentan, and Sitaxsentan as Hepatobiliary Transporter Inhibitors and Substrates in Sandwich-Cultured Human Hepatocytes” (PLoS ONE, 2014).
“And” between values parts separate entries of the source, which are not always exact repeats. Equal values may be shown once.

Legend:
Pgp = biological target: T1, Pgp (Homo sapiens, UniProt P08183); parameters: method as in earlier work; details: data previously reported, similar conditions ref 35; cited from earlier work
T1 construct: host or cells: MDCKII
T1 sequence (P08183 whole entry): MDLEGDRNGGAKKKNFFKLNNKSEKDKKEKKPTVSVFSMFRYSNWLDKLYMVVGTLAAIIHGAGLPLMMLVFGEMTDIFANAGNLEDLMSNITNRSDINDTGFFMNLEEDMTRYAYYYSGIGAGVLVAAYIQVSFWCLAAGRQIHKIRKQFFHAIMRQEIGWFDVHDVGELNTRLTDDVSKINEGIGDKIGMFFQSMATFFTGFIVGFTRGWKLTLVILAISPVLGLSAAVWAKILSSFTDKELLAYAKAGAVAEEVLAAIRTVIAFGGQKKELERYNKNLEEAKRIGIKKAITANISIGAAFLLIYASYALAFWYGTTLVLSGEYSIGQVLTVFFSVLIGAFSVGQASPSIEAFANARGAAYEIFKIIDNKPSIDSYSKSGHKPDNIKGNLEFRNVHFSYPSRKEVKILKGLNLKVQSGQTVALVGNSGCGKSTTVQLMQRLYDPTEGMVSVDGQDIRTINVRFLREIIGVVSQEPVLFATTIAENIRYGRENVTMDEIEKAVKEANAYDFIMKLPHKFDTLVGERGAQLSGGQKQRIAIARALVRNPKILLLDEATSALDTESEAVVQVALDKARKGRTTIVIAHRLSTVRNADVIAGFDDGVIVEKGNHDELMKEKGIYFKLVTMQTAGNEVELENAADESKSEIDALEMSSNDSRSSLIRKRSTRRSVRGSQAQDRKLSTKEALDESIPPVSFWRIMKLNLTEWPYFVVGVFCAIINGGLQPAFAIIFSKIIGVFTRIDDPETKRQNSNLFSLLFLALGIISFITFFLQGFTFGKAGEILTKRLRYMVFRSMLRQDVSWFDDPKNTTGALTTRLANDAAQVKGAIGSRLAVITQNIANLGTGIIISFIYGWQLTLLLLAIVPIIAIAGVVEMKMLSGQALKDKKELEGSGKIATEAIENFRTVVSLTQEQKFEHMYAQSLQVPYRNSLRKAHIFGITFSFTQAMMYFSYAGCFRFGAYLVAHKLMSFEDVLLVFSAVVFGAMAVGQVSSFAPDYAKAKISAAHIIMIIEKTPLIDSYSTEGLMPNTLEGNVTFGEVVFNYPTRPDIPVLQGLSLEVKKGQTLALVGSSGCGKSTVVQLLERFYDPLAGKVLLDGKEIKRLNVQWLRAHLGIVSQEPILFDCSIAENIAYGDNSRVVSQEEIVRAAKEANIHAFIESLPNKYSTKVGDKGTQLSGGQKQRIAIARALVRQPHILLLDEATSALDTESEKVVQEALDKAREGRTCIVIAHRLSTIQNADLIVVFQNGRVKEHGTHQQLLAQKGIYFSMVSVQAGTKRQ

[1] = test system: sandwich-cultured human hepatocytes; test: Effect of ERAs on endogenous glycocholic acid (GCA) distribution in sandwich-cultured human hepatocytes; assay type: cell-based; details: 24 h, mean ± standard error, n=3 human livers
Method: Sandwich-cultured human hepatocytes were obtained from Celsis/IVT (Baltimore, MD) or Life Technologies (Durham, NC). Donors were male (n = 3) and female (n = 1) between the ages of 31 and 62 years old. Hepatic uptake, biliary excretion and in vitro biliary clearance (Clb) were determined using the B-CLEAR® hepatocyte sandwich culture model as described by Liu et al., 1999 [34]. In this system, hepatocytes form functional bile canalicular networks while maintaining the expression and function of key uptake and efflux transporters. The canalicular system of bile pockets remains separate from the cellular culture media due to tight junctions between cells. The integrity of these tight junctions is maintained in the presence of calcium (Plus (+) buffer) while in the absence of calcium (Minus (−) buffer), these tight junctions open and release the contents of the canalicular network into the media.
Incubation solutions containing ERA (1, 10 and 100 µM) were prepared in cell culture medium. On the sixth day of culturing of the sandwich-cultured hepatocytes, cell culture medium was removed from the wells and incubation solutions containing the test ERAs were added to the cells. The cells were incubated with ERA solution for 24 h at 37°C. After the exposure, the incubation solutions were removed and the cells were rinsed with Plus (+) or Minus (−) buffer. The buffer solutions were then removed and the cells were incubated with fresh Plus (+) or Minus (−) buffer for 5 min at 37°C. Following this 5 minute incubation, the buffer solutions were collected and any remaining buffers were removed. The cells were then washed three times with ice-cold Plus (+) buffer and the plates were frozen at −80°C until processed for bioanalysis.
Study samples were stored in their original 24-well plates at −80°C until prepared for analysis. A volume of 500 µL of cell lysis solution (70∶30 methanol:water) containing 25 nM internal standard was added to each well and mixed for 20 min of mixing. The volume in each well was then transferred to a 96-well filter plate stacked on a Greiner deep well collection plate. The filter plate/collection plate was then centrifuged at 2000 rcf for 5 min. The filtrate was then evaporated to dryness under nitrogen. Samples were reconstituted in 200 µL of sample diluent (60∶40 methanol:10 mM ammonium acetate, native pH), sealed, and placed on a plate shaker for 15 min. These samples were then transferred to a Whatman 96-well 0.45 µm PVDF filter plate stacked on a Costar 3956 plate (HPLC injection plate), centrifuged at 2000 rcf for 2–3 min, and sealed with a silicon cap mat prior to LC-MS/MS analysis. d8-TCA standard spiking solutions were prepared in 50∶50 methanol:water. For a given lysate standard or control, 10 µL was added to each well of a previously frozen analytical plate. Standards representing 0.5–100 pmoles/well and QC’s at the LLQ and ULQ were prepared. These lysate standards and controls were then further processed as described above for unknown study samples. Prepared samples were filtered and analyzed by LC-MS/MS using a Shimadzu binary HPLC system (Columbia, MD) and tandem mass spectrometry using Thermo Electron TSQ® Quantum Discovery MAX™ (Waltham, MA) with an Ion Max ESI source operating in negative ion electrospray ionization mode. Results for unknowns and QCs were calculated using a standard curve based on an internal standard processing method.
Statistical comparisons across ERA treatments were performed using analysis of variance (ANOVA) with Fisher’s PLSD post hoc analysis (Statview 5.0, SAS Institute, Cary NC); statistical significance was considered to be P<0.05. All mass values were normalized to mg protein by taking the average protein mass in the taurocholate plate determined using a BCA protein assay (Pierce Biotechnology, Rockford, IL). […]

fresh human hepatocytes = test: Cellular uptake of bosentan and macitentan into fresh human hepatocytes with or without transport inhibitors; assay type: in vitro ADME; details: 300 nM
Method: The cellular uptake of bosentan and macitentan was determined in fresh human hepatocytes purchased from Celsis/IVT (Baltimore, MD) or Life Technologies (Foster City, CA). Cells were pre-incubated in Krebs-Henseleit Buffer containing 5% bovine serum albumin for 30 min at 37°C prior to assay. Cells were then co-incubated in the presence and absence of an inhibitor cocktail containing 40 µM rifampicin and 5 µM of cyclosporin A for 15 min. Test compounds bosentan and macitentan were diluted to 3 fold of final target concentration in the same assay buffer and equilibrated at 37°C for 30 min. The uptake assay was initiated by adding 50 µL of test compound solution to the 48-well plate containing 100 µL cell suspension, mixed and incubated at 37°C for 30, 60 and 90 sec. Final cell density was 2×10^6 cells/mL with a final test compound concentration of 300 nM. The reaction mixture was overlaid onto pre-prepared microcentrifuge tubes containing 100 µL of 2 N NaOH (bottom layer) and 100 µL of filtration oil (middle layer; 74.5∶25.5 silicon oil:mineral oil mix) followed by centrifugation at 13,000 g for 30 sec. The samples were allowed to sit at room temperature for 2 h and then frozen at −80°C. The microcentrifuge tubes were then cut and the bottom layer containing the cell lysate collected. HCl solution was added to neutralize the solution. Samples were extracted with organic solvents for analysis by liquid chromatography coupled to tandem mass spectrometry (LC/MS/MS).

BSEP = test system: BSEP; parameters: method as in PMID 11309550, PMID 20829430, PMID 17061295, PMID 23956101; details: read-out: BSEP inhibition values previously reported (IC50); cited from earlier work
murine Pgp = test system: murine Pgp; parameters: method as in PMID 23353592; details: cited from earlier work
[2] = parameters: method as in PMID 22189899; details: plasma pharmacokinetics in patients ref 36; cited from earlier work

| reduction of cellular uptake in the presence of transport inhibitors (fresh human hepatocytes; 40 µM rifampicin plus 5 µM cyclosporin A, fresh human hepatocytes) | cellular uptake relative to that of bosentan (fresh human hepatocytes; human) | SMILES | IC50 (Pgp) | GCA BEI (% Control) ([1]; 1 µM) | GCA Cellular Accumulation (% Control) ([1]; 1 µM) | GCA Medium Concentration (% Control) ([1]; 1 µM) | GCA Total Accumulation (% Control) ([1]; 1 µM) | GCA BEI (% Control) ([1]; 10 µM) | GCA Cellular Accumulation (% Control) ([1]; 10 µM) | GCA Medium Concentration (% Control) ([1]; 10 µM) | GCA Total Accumulation (% Control) ([1]; 10 µM) | GCA BEI (% Control) ([1]; 100 µM) | GCA Cellular Accumulation (% Control) ([1]; 100 µM) | GCA Medium Concentration (% Control) ([1]; 100 µM) | GCA Total Accumulation (% Control) ([1]; 100 µM) | cellular uptake in the absence of transport inhibitors (fresh human hepatocytes; fresh primary human hepatocytes, n = 4 donors) | IC50 (BSEP) | IC50 (murine Pgp) | increase in macitentan exposure on coadministration with cyclosporin A [2] | increase in macitentan trough concentration on coadministration with cyclosporin A [2] |
| --- | --- | --- | --- | --- | --- | --- | --- | --- | --- | --- | --- | --- | --- | --- | --- | --- | --- | --- | --- | --- |
|  |  | Cc1cc2c(cc1CC(=O)c1sccc1S(=O)(=O)Nc1onc(C)c1Cl)OCO2 [sitaxsentan] | > 100 µM | 100.0 ± 18.3 % Control | 90.9 ± 6.5 % Control | 104.0 ± 8.1 % Control | 98.6 ± 16.1 % Control | 84.2 ± 6.0 % Control | 69.8 ± 11.1 % Control | 92.8 ± 3.8 % Control | 60.3 ± 7.2 % Control | 61.7 ± 12.2 % Control | 18.6 ± 6.9 % Control | 75.0 ± 3.5 % Control | 14.4 ± 5.4 % Control |  |  |  |  |  |
| 46% |  | COc1ccccc1Oc1c(NS(=O)(=O)c2ccc(C(C)(C)C)cc2)nc(-c2ncccn2)nc1OCCO [bosentan] |  | 85.9 ± 12.6 % Control | 78.4 ± 14.5 % Control | 99.6 ± 2.1 % Control | 71.9 ± 12.9 % Control | 32.3 ± 30.1 % Control | 55.1 ± 14.4 % Control | 85.5 ± 6.3 % Control | 35.9 ± 5.3 % Control | 35.4 ± 13.9 % Control | 25.6 ± 8.4 % Control | 77.1 ± 10.1 % Control | 17.4 ± 6.1 % Control | 4.6±0.7 pmol/million cells and 4.6 pmol/million cells | 12 to 76.8 µM |  |  |  |
|  | approximately 7 times | CCCNS(=O)(=O)Nc1ncnc(OCCOc2ncc(Br)cn2)c1-c1ccc(Br)cc1 [macitentan] |  | 96.9 ± 17.6 % Control | 81.7 ± 10.7 % Control | 101.0 ± 3.3 % Control | 84.6 ± 12.6 % Control | 54.9 ± 10.3 % Control | 62.7 ± 10.5 % Control | 88.9 ± 1.8 % Control | 46.5 ± 8.3 % Control | 39.4 ± 12.3 % Control | 38.1 ± 13.6 % Control | 52.6 ± 1.2 % Control | 24.7 ± 7.8 % Control |  |  | 4.4 µM and 4 µM | 10% | 38% |
|  |  | COC(c1ccccc1)(c1ccccc1)[C@H](Oc1nc(C)cc(C)n1)C(=O)O [ambrisentan] |  | 90.3 ± 13.5 % Control | 93.0 ± 9.3 % Control | 101.0 ± 3.5 % Control | 87.2 ± 10.8 % Control | 75.4 ± 8.6 % Control | 88.2 ± 15.5 % Control | 91.3 ± 7.5 % Control | 73.0 ± 8.4 % Control | 65.9 ± 6.8 % Control | 48.8 ± 10.8 % Control | 95.7 ± 6.7 % Control | 39.1 ± 11.9 % Control |  |  |  |  |  |
